Results: publication PMC8838982 (Bioorganic chemistry, 2021)
Several values for one entry are separate records, joined by “and”; a condition that tells them apart may be missing. Equal values may be shown once.

Assays:
Type in all cases: cell-based, influenza virus A/PR/8/34
[1] = system: PA-mutant V122T influenza virus polymerase
[2] = system: PA-mutant G81T influenza virus polymerase
[3] = system: PA-mutant R84L influenza virus polymerase
[4] = system: PA-mutant R124Q influenza virus polymerase
[5] = system: PA-mutant K137L influenza virus polymerase
[6] = system: PA-mutant L42T influenza virus polymerase
[7] = system: PA-mutant H41A influenza virus polymerase
[8] = system: PA-mutant I120T influenza virus polymerase
[9] = system: PA-mutant T20A influenza virus polymerase
[10] = system: PA-I38T mutant influenza virus polymerase

Compound | Fold increase in EC50 compared to wild-type [1] [fold] | Fold increase in EC50 compared to wild-type [2] [fold] | Fold increase in EC50 compared to wild-type [3] | Fold increase in EC50 compared to wild-type [4] [fold] | Fold increase in EC50 compared to wild-type [5] [fold] | Fold increase in EC50 compared to wild-type [6] [fold] | Fold increase in EC50 compared to wild-type [7] [fold] | Fold increase in EC50 compared to wild-type [8] [fold] | Fold increase in EC50 compared to wild-type [9] [fold] | Fold increase in EC50 compared to wild-type [10] [fold]
O=C1c2c(ccc(O)c2O)CN1Cc1ccc(O)cc1 [Compound 17, 2-(4-hydroxybenzyl)-6,7-dihydroxy-isoindolin-1-one] | 4.2 | 6.1 | 4 fold and 3.8 fold | 5.0 | 4.5 | 2.5 | 4.9 | 6.1 | – | –
NC(=O)c1ncn([C@@H]2O[C@H](CO)[C@@H](O)[C@H]2O)n1 [Ribavirin, ribavirin] | 1.2 | 0.9 | 1.1 fold | 1.1 | 1.3 | 0.9 | 0.8 | 1.0 | 1.0 | –
baloxavir acid [BXA] | 0.7 | 0.2 | 0.2 fold | 0.5 | – | 1.1 | 0.2 | 0.7 | 0.3 | 65
